In paper PMC6522510 (Nature Communications, 2019):

Experiments:
Parameters in all cases: species or system AML cell lines (8); Primary HTS, single concentration about 10 uM, Cell Titer Glo viability; log10 luminescence, per cent inhibition relative to cycloheximide control
Details in all cases: 72 h, relative to cycloheximide control, log10 luminescence; inhibitor
ML-2 = test system: ML-2
CMK = test system: CMK
M07e = test system: M07e
MV4-11 = test system: MV4-11
CMS = test system: CMS
CHRF288-11 = test system: CHRF288-11
MOLM-13 = test system: MOLM-13
U937 = test system: U937

Row | Structure (SMILES) | ML-2 %inh (ML-2) [%] | CMK %inh (CMK) [%] | M07e %inh (M07e) [%] | MV4-11 %inh (MV4-11) [%] | CMS %inh (CMS) [%] | CHRF288-11 %inh (CHRF288-11) [%] | MOLM-13 %inh (MOLM-13) [%] | U937 %inh (U937) [%]
1 | CCn1c(-c2nonc2N)nc2c(C#CC(C)(C)O)nc(O[C@@H](CN)c3ccccc3)cc21 [SJ000573327-1, MS208738-058A1] | 56.05 | 85.94 | 123.2 | 81.31 | 81.02 | 92 | 95.38 | 77.05
2 | CCCN1CCC(c2ccc(Nc3nc(Nc4cc(F)ccc4C(N)=O)c4cc[nH]c4n3)c(OC)c2)CC1 [SJ000573328-1, U23536/58/1] | 55.61 | 51.59 | 37.4 | 58.24 | 49 | 106.3 | 66.64 | 63.82
3 | O=C(O[C@H]1CN[C@H](C#Cc2cc3ncnc(Nc4ccc(OCc5cccc(F)c5)c(Cl)c4)c3s2)C1)N1CCOCC1 [SJ000573329-1, U20348/87/4] | 22.51 | 8.904 | -3.855 | 10.03 | 8.758 | 79.21 | 4.591 | 6.089
4 | N#Cc1cccc(Nc2nccc(-c3cnn4ncccc34)n2)c1 [SJ000573330-1, U19339/96/3] | 56.71 | 106.6 | 113.8 | 85.56 | 104.6 | 55.56 | 98.39 | 80.06
5 | Nc1ncnc2occ(-c3ccc(NC(=O)Nc4cc(C(F)(F)F)cc(C(F)(F)F)c4)cc3)c12 [SJ000573331-1, T299/133/15] | 1.52 | 3.982 | 1.156 | 73.61 | 4.245 | 6.057 | 93.65 | 4.807
6 | CC(=O)Nc1cccc(C#Cc2cncnc2Nc2ccc(OCc3cccc(F)c3)c(Cl)c2)c1 [SJ000573332-1, U21935/99/1] | 1.213 | -0.8317 | 1.101 | 0.9824 | 0.8612 | 3.642 | 0.3704 | 4.462
7 | CCn1c(-c2nonc2N)nc2c(C#CC(C)(C)O)ncc(OC[C@@H]3CCCN3)c21 [SJ000573333-1, ML205742-149B0] | 7.469 | 15.2 | 9.925 | 16.86 | 14 | 13.49 | 74.82 | 42.79
8 | O=C(O[C@H]1CN[C@H](C#Cc2cc3ncnc(Nc4ccc(Cc5ccccc5)cc4)c3s2)C1)N1CCOCC1 [SJ000573334-1, U20046/184/1] | 11.25 | 86.74 | 4.781 | 4.189 | 1.486 | 4.257 | 61.51 | 2.636
9 | C[C@@H](Oc1cc(-n2cnc3ccc(OC[C@@H](O)CO)cc32)sc1C(N)=O)c1ccccc1Cl [SJ000573335-1, U22436/41/1] | 25.64 | 83.74 | 110.3 | 65.42 | 71.91 | 63.27 | 82.19 | 86.31
10 | Cc1ccc(NC(=O)c2ccnc(N3CCCC3)c2)cc1-c1ccc(C(=O)NCC2CC2)cc1 [SJ000573336-1, U23923/65/8] | -2.392 | 0.1294 | -0.5333 | 1.019 | -0.7437 | -0.1983 | 2.702 | 0.7829
11 | CCCN1CCCC(c2ccc(Nc3nc(Nc4cc(F)ccc4C(N)=O)c4cc[nH]c4n3)c(OC)c2)C1 (stereo not shown) [SJ000573337-1, U23441/128/1] | 69.05 | 49.26 | 41.75 | 85.37 | 31.15 | 108.4 | 102.6 | 43.81
12 | CCn1c(-c2nonc2N)nc2c(C#CC(C)(C)O)ncc(OCC3CCNCC3)c21 [SJ000573338-1, N3180-49-A1] | 1.732 | 1.889 | -1.564 | 8.685 | 4.398 | -0.2898 | 4.413 | 25.28
13 | CCn1c(-c2nonc2N)nc2c(C#CCN)ncc(OCCCN)c21 [SJ000573339-1, N3180-25-A1] | 0.8489 | 3.187 | -1.392 | 3.433 | 4.589 | 1.457 | 6.465 | 1.188
14 | CCn1c(-c2nonc2N)nc2c(C#CC(C)(C)O)ncc(OC3CCNCC3)c21 [SJ000573340-1, N2972-34-A1] | 4.911 | 1.4 | 6.128 | 14.73 | 5.982 | 8.441 | 25.8 | 50.59
15 | CCN(CC)Cc1ccc(Nc2nccc(-c3cnn4ncccc34)n2)cc1 [SJ000573341-1, U20497/10/4] | 56.99 | 90.23 | 122.1 | 77.95 | 102.8 | 61.01 | 89.9 | 77.76
16 | CCn1c(-c2nonc2N)nc2ccc(F)cc21 [SJ000573344-1, U17602/50/1] | -0.6145 | -0.9351 | 1.126 | -0.453 | -1.218 | 4.16 | 3.561 | -1.756
17 | O=C(NCC1CC1)c1ccc(-c2cccc(C(=O)NC3CC3)c2)cc1 [SJ000573345-1, R5419/155/1] | 0.3479 | 6.153 | 0.9268 | 3.005 | 0.2631 | -1.419 | 4.094 | 0.894
18 | Cc1ccc(C(=O)NC2CCCCC2)cc1-c1ccc(C(=O)NCC2CC2)cc1 [SJ000573346-1, R5311/184/6] | -1.695 | 5.045 | -0.328 | 6.399 | -0.3831 | 2.896 | 6.287 | 4.929
19 | Cc1ccc2c(-c3ccnc(Nc4ccc5c(c4)OCCO5)n3)c(-c3ccc(C(F)(F)F)cc3)nn2n1 [SJ000573347-1, U19201/9/2] | -1.284 | -1.247 | -1.129 | -1.366 | -0.8147 | 4.555 | 1.079 | 1.52
20 | FC(F)(F)CNc1nccc(-c2cnn3ncccc23)n1 [SJ000573348-1, U14929/198/1] | 3.221 | 5.414 | 2.938 | 26.7 | 9.976 | 8.25 | 10.23 | 21.18
21 | NC(=O)c1ccc2c(-c3ccnc(NCCCO)n3)c(-c3ccc(F)cc3)nn2c1 [SJ000573349-1, U15445/74/1] | 0.07673 | 3.481 | 8.993 | 0.006279 | -1.938 | 6.72 | 4.269 | 3.919
22 | CC(=O)Nc1cccc(C#Cc2cncnc2Nc2ccc(OCc3cccc(F)c3)c(Cl)c2)n1 [SJ000573352-1, U17741/29/4] | -1.648 | 2.98 | -1.039 | 2.175 | -3.127 | -2.536 | 1.614 | 0.4059
23 | CCc1ccc(Oc2nccc(-c3c(-c4ccc(F)cc4)ncn3C3CCNCC3)n2)cc1 [SJ000573353-1, JB42215-197B1] | 3.582 | 9.775 | 7.09 | 7.571 | 2.88 | 58.08 | 6.147 | 8.087
